These results are taken from patent publication US9963475B2, “Anthracene-9, 10-dione dioxime compound prodrugs and their uses” (Beta Cat Pharmaceuticals, Inc., priority 2015, dated 2018).

Data set [1] is described as follows: Solubility assay in buffer (pH 1 and pH 6), LC-MS/MS. It counts as physicochemical. The method, then: (§1) A stock solution of the compound will be prepared in dimethylsulfoxide (DMSO) at 10 mM concentration. This stock solution will be serially diluted in DMSO to get stock solutions of 5, 2.5, 1.25, 0.625, 0.312, 0.156, and 0.078 mM. Working solutions of compound at a range of concentrations (100, 50, 25, 12.5, 6.25, 3.12, 1.56, and 0.78 μM) will be prepared in different buffers (pH 1 and 6).
(§2) In a 100 mL bottle, 33.5 mL of 0.2 M hydrochloric acid solution will be added to 12.5 mL of 0.2 M potassium chloride solution and diluted to […] with Milli-Q® water. The pH of the buffer solution will be adjusted to 1.0 with 0.2 M HCl solution and finally, volume will be made to 100 mL with Milli-Q® water.
(§3) In a 100 mL bottle, 6.15 mL of 0.2 M disodium hydrogen phosphate (dibasic) and 43.85 mL of 0.2 M sodium dihydrogen phosphate (monobasic) solution will be added. The pH of the buffer solution will be adjusted to 6.0 using the phosphate solutions. The volume will be made to 100 mL with Milli-Q® water.
The study will be performed in a 96-well deep well plate by spiking 10 μL stock solutions into 990 μL buffer. Spiked buffer samples will be maintained at room temperature for 2 h. Incubations will be performed in duplicates. The plate will be centrifuged at 4000 rpm for 20 min at room temperature to enable the insoluble particles/precipitates to settle down. The supernatant will be diluted 1:1 with acetonitrile and internal standard will be added. The samples will be analyzed using LC-MS/MS.
(§4) The samples will be analysed for BC3005 using a fit-for-purpose LC-MS/MS method. If the sample concentration is above upper limit of quantification, the samples will be diluted and read against the calibration curve.
(§5) The concentration in samples will be determined against the calibration curve by using the following equation: Y=mX+C

Data set [2] in a line: Pharmacokinetics of Compound 10 (prodrug) and estimation of Compound 1 (parent) following oral and intravenous administration. The settings on record: for Vd / AUC(0-inf) / AUC(0-t) / clearance / half-life / MRT last: male, Sprague Dawley; for Vd: rat, plasma, iv, 1.28 mg/kg; for AUC(0-inf) / AUC(0-t) / clearance / half-life / MRT last / AUCExtra / Co: rat plasma; for AUC(0-inf) / AUC(0-t) / clearance / half-life / MRT last / AUCExtra: IV 1.28 mg/kg sodium salt of compound 10; for MRT last: read-out: MRT0-last; for Co: IV 1.28 mg/kg sodium salt of compound 10, mean concentration data. It counts as in vivo, Male Sprague Dawley Rats. The source says:
Pharmacokinetics of Compound 10 (Prodrug) and Estimation of Compound 1 (Parent) Following Oral and Intravenous Administration in Male Sprague Dawley Rats

Data set [3] can be described thus: Stability assay in buffer (pH 1 and pH 6), LC-MS/MS. The class given is physicochemical. The method, then:
as §1, §2, §3
The study will be performed in a 96-well deep well plate by spiking 10 μL of stock solutions into 990 μL buffer and 100 μL aliquots will be withdrawn at 0 and 120 min. The aliquots will be collected in centrifuge tubes containing 100 μL of acetonitrile. To the quenched samples, internal standard will be added and they will be taken for analysis using LC-MS/MS spectrometry. The experiments will be performed in duplicate in an orbital shaker maintained at 37° C. at 60 rpm.
as §4, §5

The nature of data set [4]: Mouse PK study with Compound 24. The settings on record: in vivo; for bioavailability: nominal doses and AUClast of IV (1 mg/kg) and PO (10 mg/kg) used. The source says:
Mouse PK Study with Compound 24 Summary of Pharmacokinetic Parameters of Compound 24 and Tegavivint: […]

The mark [5] stands for this setting: aqueous buffer pH 1, simulated gastric fluid, kinetic from dmso stock, pH 1, room temperature.
The mark [6] stands for this setting: aqueous buffer pH 6, aqueous buffer, kinetic from dmso stock, pH 6, room temperature.
The mark [7] stands for this setting: IV 1.28 mg/kg sodium salt of compound 10, read-out: Vd.
Setting [8] is: IV 1.28 mg/kg sodium salt of compound 10, read-out: Vdss.
Setting [9] is: IV 1 mg/kg Compound 24, read-out: T½ (converted).
[10] abbreviates: PO 10 mg/kg Compound 24, read-out: C0/Cmax.

Molecules are shown by their SMILES. Where a name gives a salt, the structure may show the parent alone. Read-outs that look alike come from different tables or passages of the source. Bounds are passed on as bounds.

By solubility is commonly meant the concentration that dissolves in the medium under given conditions. What is called AUC(0-inf) is total exposure, with the tail of the curve extrapolated. The term AUC(0-t) denotes the area under the concentration-time curve up to a stated or last time point. As to `C[C@@H]1C[C@H](C)CN(S(=O)(=O)c2ccc3c(c2)C(=NO)c2cc(S(=O)(=O)N4C[C@H](C)C[C@H](C)C4)ccc2C3=NOCOP(=O)(O)O)C1` [Compound 10, ((((9E,10E)-3,6-bis(((3S,5R)-3,5-dimethylpiperidin-1-yl)sulfonyl)-10-(hydroxyimino)anthracen-9(10H)-ylidene)amino)-oxy)methyl dihydrogen phosphate], the solubility at 2 h in data set [1] (setting [5]) is under 0.78 µM. The solubility at 2 h in data set [1] (setting [6]) was under 0.78 µM. Further, the Vd in data set [2] (setting [7]) was 3.31 L/kg. The Vd in data set [2] (setting [8]) was 0.39 L/kg. Moreover, in data set [2], the AUC(0-inf) was 885 ng·h/mL, the AUC(0-t) is 869 ng·h/mL, the clearance is 24.1 mL/min/kg and the half-life was 1.59 h. In data set [2], the MRT last is 0.15 h, the AUCExtra is reported as 1.81% and the Co is given as 11437.00 ng/mL. Also, the “% Compound remaining at 120 min” value in data set [3] (pH 1, 37° C.) stood at 101%. Further, the “% Compound remaining at 120 min” value in data set [3] (pH 6, 37° C.) is on record as 79%.

Regarding `CC(C)[C@H](N)C(=O)OCON=C1c2cc(S(=O)(=O)N3C[C@H](C)C[C@H](C)C3)ccc2C(=NO)c2ccc(S(=O)(=O)N3C[C@H](C)C[C@H](C)C3)cc21.Cl` [Compound 43, ((((9E,10E)-2,7-bis(((3R,5S)-3,5-dimethylpiperidin-1-yl)sulfonyl)-10-(hydroxyimino)anthracen-9(10H)-ylidene)amino)-oxy)methylvalinate hydrochloride], the solubility at 2 h in data set [1] (pH 1, room temperature) is listed as under 0.78 µM; in data set [1] (pH 6, room temperature), under 0.78 µM. Moreover, the “% Compound remaining at 120 min” value in data set [3] (pH 1, 37° C.) was found to be 90%; in data set [3] (pH 6, 37° C.), 128%.

On to `CC(C)C[C@H](N)C(=O)OCON=C1c2ccc(S(=O)(=O)N3C[C@H](C)C[C@H](C)C3)cc2C(=NO)c2cc(S(=O)(=O)N3C[C@H](C)C[C@H](C)C3)ccc21.Cl` [Compound 41, ((((9E,10E)-3,6-bis(((3R,5S)-3,5-dimethylpiperidin-1-yl)sulfonyl)-10-(hydroxyimino)anthracen-9(10H)-ylidene)amino)oxy)methyl leucinate hydrochloride], for which the solubility at 2 h in data set [1] (pH 1, room temperature) is reported as under 0.78 µM; in data set [1] (pH 6, room temperature), under 0.78 µM. The “% Compound remaining at 120 min” value is 98% in data set [3] (pH 1, 37° C.) and 76% in data set [3] (pH 6, 37° C.).

What is called MRT inf is a mean duration of stay, worked out from the concentration-time curve. Usually Tmax stands for the time at which the peak concentration occurs. As a reminder, the bioavailability is dose-corrected exposure relative to a reference, in per cent. As to `CCC(C)C(N)C(=O)OCON=C1c2ccc(S(=O)(=O)N3C[C@H](C)C[C@H](C)C3)cc2C(=NO)c2cc(S(=O)(=O)N3C[C@H](C)C[C@H](C)C3)ccc21` (stereo partly drawn) [Compound 24, ((((9E,10E)-3,6-bis(((3R,5S)-3,5-dimethylpiperidin-1-yl)sulfonyl)-10-(hydroxyimino)anthracen-9(10H)-ylidene)amino)oxy)methyl 2-amino-3-methylpentanoate dihydrochloride], the AUC(0-inf) in data set [4] (IV 1 mg/kg Compound 24) was 379 ng·h/mL; in data set [4] (PO 10 mg/kg Compound 24), 78.2 ng·h/mL. In addition, the AUC(0-t) came out at 376 ng·h/mL in data set [4] (IV 1 mg/kg Compound 24) and 60.5 ng·h/mL in data set [4] (PO 10 mg/kg Compound 24). Besides, the MRT inf in data set [4] (IV 1 mg/kg Compound 24) stood at 0.476 h; in data set [4] (PO 10 mg/kg Compound 24), 1.36 h. Further, the clearance in data set [4] (IV 1 mg/kg Compound 24) was 43.9 mL/min/kg. The Cmax in data set [4] (IV 1 mg/kg Compound 24, C0 back extrapolated concentration at time zero) is 2370 ng/mL; in data set [4] (setting [10]), 60.7 ng/mL. In addition, the half-life in data set [4] (setting [9]) was 0.748 h; in data set [4] (PO 10 mg/kg Compound 24, read-out: T½ (converted)), 0.873 h. Also, in data set [4] (IV 1 mg/kg Compound 24, read-out: VSS), the Vd turned out to be 1.25 L/kg. In data set [4] (PO 10 mg/kg Compound 24), the Tmax stood at 0.25 h. Moreover, the bioavailability in data set [4] is 2%. Besides, the values for the solubility at 2 h in data set [1] (setting [5]) and in data set [1] (setting [6]) were over 100 µM and under 0.78 µM, respectively. The “% Compound remaining at 120 min” value in data set [3] (pH 1, 37° C.) is on record as 101%; in data set [3] (pH 6, 37° C.) it was 93%.

In the case of `CCC(C)C(N)C(=O)OCON=C1c2cc(S(=O)(=O)N3C[C@H](C)C[C@H](C)C3)ccc2C(=NO)c2ccc(S(=O)(=O)N3C[C@H](C)C[C@H](C)C3)cc21` (stereo partly drawn) [Compound 38, ((((9E,10E)-2,7-bis(((3S,5R)-3,5-dimethylpiperidin-1-yl)sulfonyl)-10-(hydroxyimino)anthracen-9(10H)-ylidene)amino)oxy)methyl 2-amino-3-methylpentanoate], the solubility at 2 h in data set [1] (setting [5]) and in data set [1] (setting [6]) was under 0.78 µM each time. Also, the “% Compound remaining at 120 min” value worked out at 85% in data set [3] (pH 1, 37° C.) and 96% in data set [3] (pH 6, 37° C.).

Regarding `C[C@@H]1C[C@H](C)CN(S(=O)(=O)c2ccc3c(c2)C(=NO)c2cc(S(=O)(=O)N4C[C@H](C)C[C@H](C)C4)ccc2C3=NO)C1` [Compound 1, (9E,10E)-2,7-bis(((3R,5S)-3,5-dimethylpiperidin-1-yl)sulfonyl)anthracene-9,10-dione dioxime, reference compound], in data set [4] (IV 1 mg/kg Compound 24), the AUC(0-inf) worked out at 873 ng·h/mL, the AUC(0-t) stood at 752 ng·h/mL and the MRT inf amounted to 10.5 h. Moreover, in data set [4] (setting [9]), the half-life is 9.39 h. In addition, in data set [4] (PO 10 mg/kg Compound 24), the AUC(0-t) stood at 229 ng·h/mL and the Tmax came to 1 h. Also, the Cmax in data set [4] (setting [10]) turned out to be 52.5 ng/mL. The bioavailability in data set [4] was determined as 3%. The Vd in data set [2] (setting [7]) is 16.9 L/kg. For the same compound, the Vd in data set [2] (setting [8]) is 15 L/kg. In addition, in data set [2], the AUC(0-inf) was 446 ng·h/mL, the AUC(0-t) was 396 ng·h/mL, the clearance is 48.3 mL/min/kg and the half-life was 4 h. For the same compound, in data set [2], the MRT last was 3.56 h, the AUCExtra is given as 11.19% and the Co is reported as 116.31 ng/mL.

As to `C[C@@H]1C[C@H](C)CN(S(=O)(=O)c2ccc3c(c2)C(=NOCOC(=O)C(N)C(C)(C)C)c2cc(S(=O)(=O)N4C[C@H](C)C[C@H](C)C4)ccc2C3=NO)C1` (stereo partly drawn) [Compound 46, ((((9E,10E)-2,7-bis(((3R,5S)-3,5-dimethyl-piperidin-1-yl)sulfonyl)-10-(hydroxyimino)anthracen-9(10H)-ylidene)amino)oxy)methyl-2-amino-3,3-dimethylbutanoate], the solubility at 2 h is reported as under 0.78 µM in data set [1] (pH 1, room temperature) and under 0.78 µM in data set [1] (pH 6, room temperature). In addition, the “% Compound remaining at 120 min” value was found to be 93% in data set [3] (pH 1, 37° C.) and 97% in data set [3] (pH 6, 37° C.).

Consider `C[C@@H]1C[C@H](C)CN(S(=O)(=O)c2ccc3c(c2)C(=NO)c2cc(S(=O)(=O)N4C[C@H](C)C[C@H](C)C4)ccc2C3=NOP(=O)(O)O)C1` [Compound 4, ((((9E,10E)-3,6-bis(((3R,5S)-3,5-dimethylpiperidin-1-yl)sulfonyl)-10-(hydroxyimino)-anthracen-9(10H)-ylidene)amino)oxy)phosphonic acid], for which the solubility at 2 h in data set [1] (setting [5]) was under 0.78 µM; in data set [1] (setting [6]) it was over 100 µM. Besides, the “% Compound remaining at 120 min” value in data set [3] (pH 1, 37° C.) is given as 96%; in data set [3] (pH 6, 37° C.) it was 101%.
